The record followed here is patent US20060063784A1, “Method of using substituted pyrazolo [1,5-a] pyrimidines” (priority 2004, published 2006).

One assay deals with 80S14 (p21-deficient) cells. Nature of the assay: Cytotoxicity assay using isogenic cell lines: IC50 in 80S14 (p21-deficient) cells, SRB. The class given is cell-based, human. To be noted: 80S14 (p21-deficient) cells, 5 days, SRB; class symbols; read-out: IC50 for 80S14. The procedure: Cytotoxicity Assay Using Isogenic Cell Lines: • 1. 80S14 (p21-deficient) cells were cultured in RPMI 1640 medium (Gibco/Invitrogen Life technologies) supplemented with 10% fetal bovine serum (FBS, Gibco) and 10 μg/ml gentamycin (Gibco). Cells were maintained at 37° C. under 7% CO2 • 2. Cells were plated at 6×10^4/ml (0.2 ml/well; 12,000 cells/well) in 96-well microtiter plates (Falcon or Corning/Costar) and incubated at 37° C. overnight (18-24 hours). • 3. 2-5 μl of the test agent [200 μg/ml stock in 20% DMSO/20 mM HEPES, pH 7.5 (Gibco)] was added to each well to achieve a final concentration of 2-5 μg/ml. Cells were incubated with the test compounds for 5 days at 37° C. • 4. Surviving cells were fixed with 50 μl 50% trichloroacetic acid (Sigma; 10% final concentration) for 1 hour at 4° C. • 5. Plates were rinsed twice with water (0.3 ml per wash using MRD8 robot), and allowed to dry. • 6. Sulforhodamine B (SRB) (Sigma; 0.4% in 1% acetic acid, 50 μl per well; MRD8 robot) was added and plates kept at room temperature for 10 minutes. • 7. Excess dye was removed by washing with 1% acetic acid (3 times, 0.3 ml per wash; MRD8 robot) and allowed to dry. • 8. The dye was solubilized in Tris base (Sigma; 10 mM, 150 μl per well). Plates were kept at room temperature for 30 minutes to allow the dye to diffuse. • 9. Absorbance was measured at 540 nm. • 10. The percentage of cells surviving drug treatment relative to control wells (no drug) was determined. • 11. The difference in % cell survival between the two cell lines was calculated. • 12. Compounds producing a difference score of >50 were considered to be selective for the p21-deficient cells and were evaluated further: Determination of selectivity of compounds for p21−/− cells: • 1. 80S14 cells were cultured as described above. • 2. Cells were seeded in 96-well microtiter plates at 12,000 cells/well (either 0.15 ml/well of 8×10^4 cells/ml suspension, or 0.2 ml/well of 6×10^4 cells/ml suspension). Plates were incubated at 37° C. overnight (18-24 hours). • 3. Serial dilutions of the test agent were added to each well. Dilutions were prepared either in 40% DMSO/20% methanol/20 mM HEPES, pH 7.5 (Gibco) or directly in growth medium. One of two dose ranges were used: 5 pM to 50 μM or 170 pg/ml to 10 μg/ml. Cells were incubated with the test compounds for 5 days at 37° C. • 4. Surviving cells were fixed with 50 μl 50% trichloroacetic acid (Sigma; 10% final concentration) for 1 hour at 4° C. • 5. Plates were rinsed extensively in water, and allowed to dry. • 6. Sulforhodamine B (Sigma; 0.4% in 1% acetic acid, 70 μl per well) was added and plates kept at room temperature for 10 minutes. • 7. Excess dye was removed by washing 5 times with 1% acetic acid and plates were allowed to dry. • 8. The dye was solubilized in Tris base (Sigma; 10 mM, 150 μl per well). Plates were placed on a titer plate shaker (Lab Line Instruments) for 5 minutes to allow the dye to diffuse. • 9. Absorbance was measured at 560 nm.
10. The drug concentration that inhibits cell proliferation by 50% relative to untreated controls (IC50) was determined from cytotoxicity curves.
The term IC50 denotes the midpoint of a concentration-inhibition curve. Regarding “N-{3-[3-(2-Thienylcarbonyl)pyrazolo[1,5-a]pyrimidin-7-yl]phenyl}-3-trifluoromethyl)benzamide [Example 281]”, the half-maximal inhibitory concentration (IC50) is under 1 µM.

The same assay, now with this note: 80S14 p21-deficient cells, 5 days incubation, SRB; read-out: IC50 for 80SI4.
As to `CCCCCNC(=O)NCC(=O)Nc1cccc(-c2ccnc3c(C(=O)c4cccs4)cnn23)c1` [Example 136, N-2-[(pentylamino)carbonyl]-N-1-{3-[3-(thien-2-ylcarbonyl)pyrazolo[1,5-a]pyrimidin-7-yl]phenyl}gylcinamide], the IC50 lay in the range of 10 to 50 µM.

Regarding `CCC(C)C(=O)Nc1cccc(-c2ccnc3c(C(=O)c4cccs4)cnn23)c1` (stereo not shown) [Example 145], the IC50 is under 1 µM.

Regarding `O=C(c1cccs1)c1cnn2c(-c3cccc(NC(=O)C45CC6CC(CC(C6)C4)C5)c3)ccnc12` [Example 53, N-{3-[3-(thien-2-ylcarbonyl)pyrazolo[1,5-a]pyrimidin-7-Yl]phenyl}adamantine-1-carboxamide], the IC50 is under 1 µM.

The same assay, now with this note: Homo sapiens, 80S14, 120 h, read-out: IC50 for 80S14 (uM).
In the case of `CC(C)CC(=O)Nc1cccc(-c2ccnc3c(C(=O)c4ccoc4)cnn23)c1` [Example 304, N-{3-[3-(3-Furoyl)pyrazolo[1,5-a]pyrimidin-7-yl]phenyl}-3-methylbutanamide], the IC50 was 1 to 10 µM.

The assay is the same for the next values; noted with them: Homo sapiens, 80S14, 120 h, read-out: IC50 for 80SI4 (uM).
As to `Cc1ccc(OC(=O)Nc2cccc(-c3ccnc4c(C(=O)c5cccs5)cnn34)c2)cc1` [Example 23, 4-methylphenyl 3-[3-(thien-2-ylcarbonyl)pyrazolo[1,5-a]pyrimidin-7-yl]phenylcarbamate], the IC50 was in the range of 10 to 50 µM.

On to `CCCC(C)C(=O)Nc1cccc(-c2ccnc3c(C(=O)c4cccs4)cnn23)c1` (stereo not shown) [Example 154, 2-methyl-N-{3-[3-(thien-2-ylcarbonyl)pyrazolo[1,5-a]pyrimidin-7-yl]phenyl}pentanamide], for which the IC50 is under 1 µM.

As to `C=CC(C)OC(=O)Nc1cccc(-c2ccnc3c(C(=O)c4cccs4)cnn23)c1` (stereo not shown) [Example 182, 1-methylprop-2-enyl 3-[3-(thien-2-ylcarbonyl)pyrazolo[1,5-a]pyrimidin-7-yl]phenylcarbamate], the IC50 was under 1 µM.

Consider `CCC(CC)C(=O)Nc1cccc(-c2ccnc3c(C(=O)c4cccs4)cnn23)c1` [Example 150, 2-ethyl-N-{3-[3-(thien-2-ylcarbonyl)pyrazolo[1,5-a]pyrimidin-7-yl]phenyl}butanamide], for which the IC50 lay within 1 to 10 µM.

The assay is the same for the next values; noted with them: Homo sapiens, 120 h; 80S14 (p21-deficient) cells, 5 days, SRB; class symbols; read-out: IC50 for 80S14.
As to `CN(C(=O)C1CCC1)c1cccc(-c2ccnc3c(C(=O)c4ccco4)cnn23)c1` [Example 233, N-[3-[3-(2-Furanylcarbonyl)-pyrazolo[1,5-a]pyrimidin-7-yl]phenyl}-N-methyl-cyclobutanecarboxamide], the IC50 lay in the range of 10 to 50 µM.

On to `CCCCNC(=O)c1cccc(-c2ccnc3c(C(=O)c4cccs4)cnn23)c1` [Example 319, N-Butyl-3-[3-(2-thienylcarbonyl)pyrazolo[1,5-a]pyrimidin-7-yl]benzamide], for which the IC50 was under 1 µM.

As for `COCCOc1cccc(-c2ccnc3c(C(=O)c4cccs4)cnn23)c1` [Example 264, [7-[3-(2-Methoxyethoxy)phenyl]pyrazolo[1,5-a]pyrimidin-3-yl]-2-thienyl-methanone], the IC50 lay in the range of 1 to 10 µM.

`Cc1ccc(C(=O)c2cnn3c(-c4cccc(NC(=O)C5CC5)c4)ccnc23)s1` [Example 252, N-[3-[3-[(5-Methyl-2-thienyl)carbonyl]pyrazolo[1,5-a]pyrimidin-7-yl]phenyl}-cyclopropanecarboxamide]: the IC50 fell in the range of 1 to 10 µM.

With `CC(C)NC(=O)Nc1cccc(-c2ccnc3c(C(=O)c4ccco4)cnn23)c1` [Example 298, N-{3-[3-(2-Furoyl)pyrazolo[1,5-a]pyrimidin-7-yl]phenyl}-N′-isopropylurea], the concentration for half-maximal inhibition (IC50) was under 1 µM.

Regarding `O=C(c1ccco1)c1cnn2c(-c3cccc(N4CCCC4=O)c3)ccnc12` [Example 228, 1-[3-[3-(2-Furanylcarbonyl)pyrazolo-[1,5-a]pyrimidin-7-yl]phenyl]-2-pyrrolidinone], the IC50 lay in the range of 10 to 50 µM.

As to `O=C(c1ccccc1)c1cnn2c(-c3cccc(N4CCCCC4=O)c3)ccnc12` [Example 227, 1-[3-(3-Benzoylpyrazolo[1,5-a]-pyrimidin-7-yl)phenyl]-2-piperidinone], the IC50 lay within 10 to 50 µM.

For the compound `O=C(c1ccco1)c1cnn2c(-c3cccc(N4CCCCC4=O)c3)ccnc12` [Example 226, 1-[3-[3-(2-Furanylcarbonyl)pyrazolo-[1,5-a]pyrimidin-7-yl]phenyl}-2-piperidinone], the IC50 was 10 to 50 µM.

Staying with this assay, now noted: Homo sapiens, 120 h; 80S14 p21-deficient cells, 5 days incubation, SRB; read-out: IC50 for 80SI4.
Regarding `CCCCCCCOc1ccc(C(=O)Nc2cccc(-c3ccnc4c(C(=O)c5cccs5)cnn34)c2)cc1` [Example 91, 4-(heptyloxy)-N-{3-[3-(thien-2-ylcarbonyl)pyrazolo[1,5-a]pyrimidin-7-yl]phenyl}benzamide], the IC50 is 10 to 50 µM.

For `COCCOCC(=O)Nc1cccc(-c2ccnc3c(C(=O)c4cccs4)cnn23)c1` [Example 63, 2-(2-methoxyethoxy)-N-{3-[3-(thien-2-ylcarbonyl)pyrazolo[1,5-a]pyrimidin-7-yl]phenyl}acetamide], the IC50 fell in the range of 1 to 10 µM.

Take `CC(C)OC(=O)NCC(=O)Nc1cccc(-c2ccnc3c(C(=O)c4cccs4)cnn23)c1` [Example 115, isopropyl 2-oxo-2-({3-[3-(thien-2-ylcarbonyl)pyrazolo[1,5-a]pyrimidin-7-yl]phenyl}amino)ethylcarbamate]: the IC50 fell in the range of 1 to 10 µM.

On to `CN1CCN(C(=O)Nc2cccc(-c3ccnc4c(C(=O)c5cccs5)cnn34)c2)CC1` [Example 166, 4-methyl-N-{3-[3-(thien-2-ylcarbonyl)pyrazolo[1,5-a]pyrimidin-7-yl]phenyl}piperazine-1-carboxamide], for which the 50% inhibitory concentration (IC50) was in the range of 1 to 10 µM.

Take `N#CCC(=O)Nc1cccc(-c2ccnc3c(C(=O)c4cccs4)cnn23)c1` [Example 60, 2-cyano-N-{3-[3-(thien-2-ylcarbonyl)pyrazolo[1,5-a]pyrimidin-7-yl]phenyl]acetamide]: the IC50 is under 1 µM.

Regarding `O=C(Nc1cccc(-c2ccnc3c(C(=O)c4cccs4)cnn23)c1)c1ccc(Br)cc1` [Example 90, 4-bromo-N-{3-[3-(thien-2-ylcarbonyl)pyrazolo[1,5-a]pyrimidin-7-yl]phenyl}benzamide], the IC50 lay within 1 to 10 µM.

In the case of `Cn1cnc(S(=O)(=O)Nc2cccc(-c3ccnc4c(C(=O)c5cccs5)cnn34)c2)c1` [Example 39, 1-methyl-N-{3-[3-(thien-2-ylcarbonyl)pyrazolo[1,5-a]pyrimidin-7-yl]phenyl}-1H-imidazole-4-sulfonamide], the IC50 lay within 10 to 50 µM.

On to `CCCCCCCCCCC(=O)Nc1cccc(-c2ccnc3c(C(=O)c4cccs4)cnn23)c1` [Example 142, N-{3-[3-(thien-2-ylcarbonyl)pyrazolo[1,5-a]pyrimidin-7-yl]phenyl}undecanamide], for which the half-inhibitory concentration (IC50) was 10 to 50 µM.

With `COC(=O)CCC(=O)Nc1cccc(-c2ccnc3c(C(=O)c4cccs4)cnn23)c1` [Example 42, methyl 4-oxo-4-({3-[3-(thien-2-ylcarbonyl)pyrazolo[1,5-a]pyrimidin-7-yl]phenyl}amino)butanoate], the IC50 was in the range of 10 to 50 µM.

As for `CCS(=O)(=O)Nc1cccc(-c2ccnc3c(C(=O)c4cccs4)cnn23)c1` [Example 28, N-{3-[3-(thien-2-ylcarbonyl)pyrazolo[1,5-a]pyrimidin-7-yl]phenyl}ethanesulfonamide], the IC50 is under 1 µM.

Take `C=CCOC(=O)Nc1cccc(-c2c(C)cnc3c(C(=O)c4cccs4)cnn23)c1` [Example 210, allyl 3-[6-methyl-3-(thien-2-ylcarbonyl)pyrazolo[1,5-a]pyrimidin-7-yl]phenylcarbamate]: the IC50 lay in the range of 10 to 50 µM.
